In US7125903B1 (Aventis Pharmaceuticals Inc., priority 1999, dated 2006):
Structures can show the parent of a compound that is named as a salt. Where two headings read alike, the source gives them in different places. Each block holds one molecule with its values, some of them ahead of it.

Columns and labels:
MK801 Stereotypy = experiment: MK-801 Stereotypy in Mice; format: in vivo; conditions: Mus musculus, read-out: Antagonism of MK801 Stereotypy % Inhib. @ 20 mg/kg (route)
Procedure: Mk-801 dose-dependently induces characteristic stereotypy marked by locomotion and falling behavior. This MK-801 induced behavior can be antagonized by novel neuroleptic agents. This assay can also assess time course effects following drug administration.
CD-1 or C57 male mice are individually placed in activity boxes (8 mice/drug) and allowed to acclimate for 60 minutes. The mice are then administered test compounds either i.p., s.c., or p.o., at 15, 30, or 60 minutes prior to MK-801 (0.2 mg/kg) administration. Mice are observed for the presence of locomotion and falling behaviors 15 minutes following MK-801. For the duration of action studies the test compounds are administered i.p., s.c., or p.o., at 30, 60, 120, 180, and 240 minutes prior to MK-801 administration.

[1] = target: T1, human D4 receptor (D4.2 sub-type) (Homo sapiens, UniProt P21917, DEL265-296); experiment: D4 receptor binding assay (3H-spiperone displacement); conditions: for inhibition at 1 µM: 1 μM test compound, inhibition of 3H-spiperone binding, read-out: D4 RBA % Inhib. @ 1 μM
T1 construct: expressed in transfected cells
T1 sequence (P21917 with tags, fused parts or gaps DEL265-296): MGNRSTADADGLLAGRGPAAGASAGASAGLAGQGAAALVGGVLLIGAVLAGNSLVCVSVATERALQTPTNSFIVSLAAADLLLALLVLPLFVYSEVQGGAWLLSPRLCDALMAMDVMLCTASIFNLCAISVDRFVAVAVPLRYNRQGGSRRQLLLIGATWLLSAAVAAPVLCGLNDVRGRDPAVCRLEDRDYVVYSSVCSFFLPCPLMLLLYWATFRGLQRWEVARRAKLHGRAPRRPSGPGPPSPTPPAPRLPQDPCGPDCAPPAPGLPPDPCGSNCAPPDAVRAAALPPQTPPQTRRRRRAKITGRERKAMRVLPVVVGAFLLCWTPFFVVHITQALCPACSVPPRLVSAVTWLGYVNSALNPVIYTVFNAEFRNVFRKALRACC
Procedure: D4 receptor-binding affinities of the compounds were evaluated according to their ability to reduce binding of ^3H-spiperone as compared to the reference compound clozapine. The potency of the test compound to reduce ^3H-spiperone binding directly correlated to its binding affinity for the receptor.
[…] (human embryonic kidney) cells stably transfected with human D4 receptor (D4.2 sub-type) were grown in NUNC cell factories for 5 days (75% confluency) without a media change and removed with versene (approximately 19 mg of cells per cell factory tray). The cells were then centrifuged in a Sorval centrifuge for 10 min, 5000 rpm (GS3 rotor) and the pellets quickly frozen in liquid nitrogen and stored at −80° C. until used in binding assay. When used in the assay, cells were thawed on ice for 20 min and then 10 mL of incubation buffer (50 mM Tris, 1 mM EDTA, 4 mM MgCl2, 5 mM KCl, 1.5 mM CaCl2, 120 mM NaCl, pH 7.4) was added. The cells were then vortexed to resuspend pellet and homogenized with a Kinematica, CH-6010 Kriens-LU, homogenizer for 15 seconds at setting 7. Concentration of receptor protein was determined using the Pierce BCA assay.
The incubation was started by the addition of 100 μl (50 μg protein) membrane homogenate to a solution of 300 μl incubation buffer and 100 μl (0.25 nM final conc.) ^3H-spiperone (90 Ci/mmol, Amersham, diluted in borosilicate glass vial) in 96-well polypropylene plates (1 mL per well). The plates were vortexed and incubated at room temperature for 90 minutes. The binding reaction was stopped by filtering using a Packard Harvester. The samples were filtered under vacuum over glass fibre filter plates (Whatman GF/B) presoaked for 2 hours in 0.3% polyethylenimine (PEI) in 50 mM Tris buffer (pH 7.4). The filters were then washed 6 times with 7 mL ice cold 50 mM Tris buffer (pH 7.4). The filter plates were dried overnight and 35 μl of Microscint-O (Packard) was added. The plates were sealed and counted in the Packard Top Count (3 minutes per well).
The incubation was started by the addition of 100 μl (50 μg protein) membrane homogenate to a solution of 200 μl incubation buffer, 100 μl ^3H-spiperone (90 Ci/mmol, Amersham, diluted in borosilicate glass vial to 0.25 nM final conc.) and 100 μl (30 μM final conc.) of fresh dopamine (Research Biochemicals Inc., light protected and dissolved in incubation buffer) in 96-well polypropylene plates (1 mL per well). The plates were vortexed and incubated at room temperature for 90 minutes at which time the binding reaction was stopped by filtering. The filters were washed and counted using the same procedure as in the total binding assay described above to give the nonspecific binding value (NSB).
The incubation was started by the addition, in 96-well polypropylene plates (1 mL per well), of 100 μl (50 μg protein) membrane homogenate to a solution of 200 μl incubation buffer, 100 μl (0.25 nM final conc.) ^3H-spiperone (90 Ci/mmol, Amersham, diluted in borosilicate glass vial) and 100 μl of test compound that was prepared from 1 mM stock dissolved in DMSO and stored at −20° C. in polypropylene cryogenic storage vials until dilution in incubation buffer in 96-well polypropylene plates. The plates were vortexed and incubated at room temperature for 90 minutes at which time the binding reaction was stopped by filtering. The filters were washed and counted using the same procedure as in the total binding assay described above to give the displacement binding value (BD).
The test compounds were initially assayed at 1 and 0.1 μM and then at a range of concentrations chosen such that the middle dose would cause about 50% inhibition of ^3H-spiperone binding. Specific binding in the absence of test compound (B0) was the difference of total binding (BT) minus non-specific binding (NSB) and similarly specific binding (in the presence of test compound) (B) was the difference of displacement binding (BD) minus non-specific binding (NSB). […]

[2] = target: human D4 receptor with seven repeat units (D4.7 variant); conditions: read-out: EC50 of dopamine; cited from earlier work
[3] = 20 mg/kg po, mice, MK-801 0.2 mg/kg

melting point: 51 to 52 °C
SMILES: C[C@@](O)(CNCc1cccs1)COc1cccc(-c2noc3ccsc23)c1.O=C(O)/C=C\C(=O)O [Compound 5, (2R)-2-methyl-1-(3-thieno[2,3-d]isoxazol-3-yl-phenoxy)-3-[thienophen-2-ylmethyl)-amino-propan-2-ol maleate]
inhibition in vivo at 20 mg/kg (MK801 Stereotypy; 20 mg/kg ip, mice, MK-801 0.2 mg/kg): 37.5%

inhibition at 1 µM [1]: 96%
SMILES: C[C@](O)(CNCc1ccccc1Cl)COc1cccc(-c2noc3ccsc23)c1 [Example 53]
inhibition in vivo at 20 mg/kg (MK801 Stereotypy; [3]): 50%

Ki ([1]; 3H-spiperone 0.25 nM, membranes of HEK 298 cells with human D4.2, Cheng-Prusoff from IC50, read-out: D4 RBA Ki): 13 nM
SMILES: C[C@](O)(CNCc1ccc(Cl)c(Cl)c1)COc1cccc(-c2noc3ccsc23)c1 [Example 54]
inhibition in vivo at 20 mg/kg (MK801 Stereotypy; [3]): 62.5%

SMILES: Cc1ccc(CNC[C@](C)(O)COc2cccc(-c3noc4ccsc34)c2)cc1 [Example 58, hydrochloride]
inhibition at 1 µM [1]: 100%
inhibition in vivo at 20 mg/kg (MK801 Stereotypy; po): 37.5%

SMILES: NCCc1ccc(O)c(O)c1 [dopamine]
EC50 [2]: 40 nM
